{
  "source": "patent US7994127B2",
  "about": "“Treatment of rett syndrome” (Massachusetts Institute of Technology, priority 2007, dated 2011)",
  "key": {"[1]": {"conditions": "in vivo; cited from earlier work"}, "[2]": {"tested_on": "layer 5 pyramidal neurons in motor cortex of MeCP2 knockout mice", "experiment": "Golgi staining, dendritic spine density and morphology", "format": "in vivo, mouse"}, "BDNF": {"tested_on": "BDNF", "experiment": "BDNF expression (mRNA micro-array, proBDNF staining) in V1 during monocular deprivation", "format": "in vivo, mouse", "conditions": "mice subjected to MD and treated; vs MD and control", "experimental": "A: Effects of (1-3)IGF-1 (GPE) treatment on the expression levels of BDNF at mRNA level. […] (1-3)IGF-1 treatment is able to increase expression though not to control levels. The RNA levels were obtained with the micro-array analysis described in Tropea et al., 2006. B: Double staining for NeuN (green) and proBDNF (red) antibody. […] Anti-pro BDNF and anti-NeuN were obtained from CHEMICON and used at a concentration of 1:500. The solutions and time of incubations are the following: preincubation in 5% BSA, 0.1% triton, 10% serum, PBS. Incubation with the primary antibodies was carried out at 4 degrees for 3 days in the following solution: 2% BSA, 5% serum, 0.1% triton, PBS. After washings in PBS secondary biotinylated (for pro-BDNF) or Alexa conjugated (for NeuN) antibodies (1:200) were incubated for 2 hours in the same solution of the primary antibodies. The pro-BDNF labeling was detected by adding extravidine tritc (Sigma—1:300). C: Effects of (1-3)IGF-1 (GPE) treatment on the mRNA expression levels of tPA. […] Anti-tPA was purchased from Oxford Biomedical Research and used at a concentration of 1:500. The conditions for incubation were the following: free floating sections were pre-incubated in blocking solution: 10% serum, 0.3% triton, PBS and then left overnight in the primary antibody mix: 1% serum, 0.3% triton, PBS, anti-tPA 1:500, anti Neu-N 1:500. […]"}, "Overall brain weight": {"experiment": "Overall brain weight", "format": "in vivo, mouse", "conditions": "as a result of knockout and treatment (Discussion)"}, "[3]": {"tested_on": "layer 5 pyramidal neurons of MeCP2−/y mice", "experiment": "Intracellular whole-cell recordings of spontaneous EPSCs in acute cortical slices", "format": "ex vivo, mouse", "experimental": "(1-3)IGF-1 treatment: For the survival measurements, the nocturnal activity analysis and the immunoblot analysis, (1-3) IGF-1 (Bachem Biosciences # H22468) was administered daily via intra-peritoneal injections (0.01 mg/g body weight, vehicle=saline, 0.01% BSA). The treatment was started at P15 and maintained throughout the course of the experiments. For intracellular physiology experiments, the mice were injected daily (0.01 mg/g body weight, vehicle=saline, 0.01% BSA) for 2 weeks, from P15 to P28-P32 when they were used for acute slice preparation. For optical imaging experiments, mice were injected with (1-3) IGF-1 (0.02 mg/g body weight, vehicle=saline, 0.01% BSA) daily from the day of the lid suture to the day of imaging. Slice physiology preparation: Coronal sections (300 μm thick) at or near sensorimotor cortex were cut in <4° C. ACSF using a Vibratome. Slices were incubated at 37° C. for 20 minutes after slicing, and at room temperature for the remainder of the experiment. Slices were transferred to a Warner chamber and recordings were taken from visually identified pyramidal neurons located in layer 5. Artificial cerebral spinal fluid (ACSF) contained 126 mM NaCl, 25 mM NaHCO3, 1 mM NaHPO4, 3 mM KCl, 2 mM MgSO4, 2 mM CaCl2, and 14 mM dextrose, was adjusted to 315-320 mOsm and 7.4 pH, and was bubbled with 95% O2/5% CO2. The intracellular pipette solution contained 100 mM potassium gluconate, 20 mM KCl, 10 mM HEPES, 4 mM MgATP, 0.3 mM NaGTP, and 10 mM Na-phosphocreatine. […] Cells were visualized with an Achroplan 40× water-immersion lens with infrared-DIC optics (Zeiss) and detected with an infrared camera (Hamamatsu) projecting to a video monitor. […] Then in current clamp ˜10 pulses (500 ms, 40-140 pA at 10 pA increments), were applied to quantify evoked firing rates and cellular excitability. […] Analysis was performed using a custom software package written in Matlab, with all events detected according to automated thresholds and blindly verified for each event individually by the experimenter. […]"}, "MeCP2−/y mice": {"tested_on": "MeCP2−/y mice", "experiment": "Heart rate measurements (real time cardiac pulse rate, tail clip sensor)", "format": "in vivo, mouse", "conditions": "8 week old MeCP2−/y mice, treated from P15 (6 weeks), non-anesthetized"}, "[4]": {"conditions": "P28, knockout treated vs knockout and wild-type"}},
  "note": "Entries after “also recorded” stand apart in the source; their conditions may differ.",
  "data": [
    {"smiles": "NCC(=O)N1CCC[C@H]1C(=O)N[C@@H](CCC(=O)O)C(=O)O", "note": "[(1-3)IGF-1, glycyl-L-prolyl-L-glutamic acid]", "values": [
      {"measurement": "crossing the blood-brain barrier", "setting": "[1]", "result": "capable of crossing the blood-brain barrier"},
      {"measurement": "over-representation of thin (immature) spines (FIG. 2D)", "setting": "[2]; P28, knockout treated vs knockout", "result": "not ameliorated by the treatment"},
      {"measurement": "% mushroom (mature) spines (FIG. 2D)", "setting": "[2]; [4]", "result": "reduced in the knockout compared to wild-type and knockout treated with (1-3)IGF1"},
      {"measurement": "dendritic spine density (spines per length of dendrite, FIG. 2C)", "setting": "[2]; [4]", "result": "spine densities more similar to wild-type values"},
      {"measurement": "average dendritic branch thickness (FIG. 2E)", "setting": "[2]; P28, wild-type, knockout, knockout treated", "result": "did not vary"},
      {"measurement": "BDNF mRNA expression level in contralateral V1 (FIG. 8A)", "setting": "BDNF", "result": "increase expression in animals subjected to MD, though not to control levels"},
      {"measurement": "BDNF protein expression, proBDNF staining (FIG. 8B)", "setting": "BDNF", "result": "increasing BDNF protein expression, though not to control levels"},
      {"measurement": "overall brain weight", "setting": "Overall brain weight", "result": "small changes were seen"},
      {"measurement": "mean EPSC amplitude per neuron, across all cells (FIG. 1C)", "setting": "[3]; KO-T compared to KO, treated two weeks, mice 28-32 days old", "result": "modestly but significantly increased"},
      {"measurement": "spontaneous EPSC amplitude (FIG. 1B)", "setting": "[3]; MeCP2−/y mice, 0.01 mg/g body weight IP daily for 2 weeks, P15 to P28-P32, vs vehicle-treated MeCP2−/y", "result": "significantly larger in amplitude"},
      {"measurement": "distributions of intervals between EPSC events (EPSC frequency, FIG. 1D)", "setting": "[3]; between WT, and KO and KO-T groups", "result": "subtly but significantly modified"},
      {"measurement": "heart rate distribution / occurrence of irregular, lower heart rate (bradycardia, FIG. 4A)", "setting": "MeCP2−/y mice", "result": "significantly reduced; also recorded: partial rescue of the KO phenotype"}
    ]}
  ]
}
